Data as given in ChEMBL document CHEMBL4184304, “Design and synthesis of novel and potent GPR119 agonists with a spirocyclic structure” (Bioorg Med Chem Lett, 2018).
Values after ≈ are worked out from the molar mass of the structure shown.

Assays:
[1] = target: T1, Glucose-dependent insulinotropic receptor (Homo sapiens, UniProt Q8TDV5); test: Agonist activity at human GPR119 expressed in HEK293 cells assessed as increase in intracellular cAMP level after 30 mins; assay type: functional, cell-based
T1 sequence (Q8TDV5 whole entry): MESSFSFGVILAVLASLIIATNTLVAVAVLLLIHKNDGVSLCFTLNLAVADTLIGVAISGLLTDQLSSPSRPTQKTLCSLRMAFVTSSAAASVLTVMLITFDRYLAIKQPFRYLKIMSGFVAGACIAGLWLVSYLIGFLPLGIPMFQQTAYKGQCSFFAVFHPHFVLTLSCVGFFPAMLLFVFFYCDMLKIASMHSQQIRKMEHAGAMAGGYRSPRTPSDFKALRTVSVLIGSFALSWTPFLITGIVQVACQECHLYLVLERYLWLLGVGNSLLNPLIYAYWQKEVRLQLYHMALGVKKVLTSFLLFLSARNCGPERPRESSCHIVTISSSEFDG

[2] = target: T2, Glucose-dependent insulinotropic receptor (Homo sapiens) (UniProt Q8TDV5); test: Agonist activity at human GPR119 expressed in HEK293 cells assessed as increase in intracellular cAMP level after 30 mins relative to oleoylethanolamide; assay type: functional, cell-based
T2 sequence (whole entry): T1 sequence (Q8TDV5 whole entry)

[3] = Solubility in fed state simulated intestinal fluid; assay type: physicochemical
Cytochrome P450 2C8 = target: T3, Cytochrome P450 2C8 (Homo sapiens, UniProt P10632); test: Inhibition of CYP2C8 (unknown origin); assay type: ADME
T3 sequence (P10632 whole entry): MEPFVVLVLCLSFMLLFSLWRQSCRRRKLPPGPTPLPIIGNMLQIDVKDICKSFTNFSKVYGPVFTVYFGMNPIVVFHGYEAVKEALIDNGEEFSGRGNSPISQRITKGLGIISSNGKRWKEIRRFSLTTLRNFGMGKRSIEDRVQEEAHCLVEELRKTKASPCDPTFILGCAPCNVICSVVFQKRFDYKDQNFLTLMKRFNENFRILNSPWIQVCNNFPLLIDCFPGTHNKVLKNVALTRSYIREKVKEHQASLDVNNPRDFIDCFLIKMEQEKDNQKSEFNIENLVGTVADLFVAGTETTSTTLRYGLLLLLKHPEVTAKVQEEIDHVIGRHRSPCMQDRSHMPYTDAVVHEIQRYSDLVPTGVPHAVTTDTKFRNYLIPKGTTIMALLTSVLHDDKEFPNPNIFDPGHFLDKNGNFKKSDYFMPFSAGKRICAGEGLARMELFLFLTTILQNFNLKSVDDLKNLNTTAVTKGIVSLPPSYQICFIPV

Cytochrome P450 2C9 = Cytochrome P450 2C9 (Homo sapiens, UniProt P11712); test: Inhibition of CYP2C9 (unknown origin); assay type: ADME
Cytochrome P450 2C9, sequence (P11712 whole entry): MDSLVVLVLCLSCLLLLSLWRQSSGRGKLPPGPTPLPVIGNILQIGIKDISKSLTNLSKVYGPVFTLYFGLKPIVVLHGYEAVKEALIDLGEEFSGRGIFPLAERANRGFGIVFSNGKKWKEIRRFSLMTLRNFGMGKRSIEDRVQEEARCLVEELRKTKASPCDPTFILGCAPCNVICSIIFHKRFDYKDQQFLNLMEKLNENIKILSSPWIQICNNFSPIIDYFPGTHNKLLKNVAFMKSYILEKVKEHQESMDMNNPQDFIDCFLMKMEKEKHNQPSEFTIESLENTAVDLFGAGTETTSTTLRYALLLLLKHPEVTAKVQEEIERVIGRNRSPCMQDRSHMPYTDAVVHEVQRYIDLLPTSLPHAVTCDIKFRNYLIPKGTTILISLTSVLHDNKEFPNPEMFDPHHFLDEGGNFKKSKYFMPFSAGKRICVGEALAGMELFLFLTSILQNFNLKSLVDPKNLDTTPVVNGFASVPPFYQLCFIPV

Cytochrome P450 2C19 = Cytochrome P450 2C19 (Homo sapiens, UniProt P33261); test: Inhibition of CYP2C19 (unknown origin); assay type: ADME
Cytochrome P450 2C19, sequence (P33261 whole entry): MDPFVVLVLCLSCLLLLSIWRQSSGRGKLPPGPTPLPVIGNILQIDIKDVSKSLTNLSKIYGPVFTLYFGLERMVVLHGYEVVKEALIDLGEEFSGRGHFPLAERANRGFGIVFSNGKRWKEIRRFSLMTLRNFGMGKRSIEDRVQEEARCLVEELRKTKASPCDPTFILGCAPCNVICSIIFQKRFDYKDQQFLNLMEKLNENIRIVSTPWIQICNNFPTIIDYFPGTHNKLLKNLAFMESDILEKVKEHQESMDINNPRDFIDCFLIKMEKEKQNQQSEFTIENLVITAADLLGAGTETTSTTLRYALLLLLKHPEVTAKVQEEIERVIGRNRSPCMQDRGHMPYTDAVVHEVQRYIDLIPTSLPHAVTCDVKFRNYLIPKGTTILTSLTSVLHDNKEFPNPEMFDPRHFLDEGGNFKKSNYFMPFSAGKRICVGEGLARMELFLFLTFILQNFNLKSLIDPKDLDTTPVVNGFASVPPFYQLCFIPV

Cytochrome P450 1A2 = target: T4, Cytochrome P450 1A2 (Homo sapiens, UniProt P05177); test: Inhibition of CYP1A2 (unknown origin); assay type: ADME
T4 sequence (P05177 whole entry): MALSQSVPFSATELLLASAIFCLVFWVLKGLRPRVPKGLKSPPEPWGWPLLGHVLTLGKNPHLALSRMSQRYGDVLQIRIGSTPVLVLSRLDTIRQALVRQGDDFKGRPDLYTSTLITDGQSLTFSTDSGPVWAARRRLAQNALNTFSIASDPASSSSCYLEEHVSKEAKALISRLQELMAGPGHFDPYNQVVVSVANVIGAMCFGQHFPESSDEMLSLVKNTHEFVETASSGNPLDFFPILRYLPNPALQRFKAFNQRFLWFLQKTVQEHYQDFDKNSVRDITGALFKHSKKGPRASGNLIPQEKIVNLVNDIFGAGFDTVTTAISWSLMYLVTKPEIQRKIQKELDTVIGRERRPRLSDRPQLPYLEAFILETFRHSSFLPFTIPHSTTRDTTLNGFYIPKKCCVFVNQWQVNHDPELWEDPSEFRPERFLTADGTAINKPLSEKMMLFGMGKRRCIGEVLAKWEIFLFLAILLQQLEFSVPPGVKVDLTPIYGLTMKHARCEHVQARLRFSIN

Cytochrome P450 3A4 = Cytochrome P450 3A4 (Homo sapiens, UniProt P08684); test: Inhibition of CYP3A4 (unknown origin); assay type: ADME
Cytochrome P450 3A4, sequence (P08684 whole entry): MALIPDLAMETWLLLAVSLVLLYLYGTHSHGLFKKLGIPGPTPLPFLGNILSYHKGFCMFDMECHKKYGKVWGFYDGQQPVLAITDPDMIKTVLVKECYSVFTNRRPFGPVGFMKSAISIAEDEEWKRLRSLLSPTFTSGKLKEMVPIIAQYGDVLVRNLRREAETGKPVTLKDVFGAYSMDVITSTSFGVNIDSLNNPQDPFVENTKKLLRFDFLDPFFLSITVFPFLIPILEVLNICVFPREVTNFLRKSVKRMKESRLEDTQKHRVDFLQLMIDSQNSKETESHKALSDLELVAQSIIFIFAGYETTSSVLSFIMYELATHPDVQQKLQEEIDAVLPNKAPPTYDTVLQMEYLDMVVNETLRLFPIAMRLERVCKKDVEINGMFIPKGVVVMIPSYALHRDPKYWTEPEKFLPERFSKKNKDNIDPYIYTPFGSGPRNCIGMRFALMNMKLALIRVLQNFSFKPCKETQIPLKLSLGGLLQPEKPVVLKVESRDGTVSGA

Cytochrome P450 2D6 = Cytochrome P450 2D6 (Homo sapiens, UniProt P10635); test: Inhibition of CYP2D6 (unknown origin); assay type: ADME
Cytochrome P450 2D6, sequence (P10635 whole entry): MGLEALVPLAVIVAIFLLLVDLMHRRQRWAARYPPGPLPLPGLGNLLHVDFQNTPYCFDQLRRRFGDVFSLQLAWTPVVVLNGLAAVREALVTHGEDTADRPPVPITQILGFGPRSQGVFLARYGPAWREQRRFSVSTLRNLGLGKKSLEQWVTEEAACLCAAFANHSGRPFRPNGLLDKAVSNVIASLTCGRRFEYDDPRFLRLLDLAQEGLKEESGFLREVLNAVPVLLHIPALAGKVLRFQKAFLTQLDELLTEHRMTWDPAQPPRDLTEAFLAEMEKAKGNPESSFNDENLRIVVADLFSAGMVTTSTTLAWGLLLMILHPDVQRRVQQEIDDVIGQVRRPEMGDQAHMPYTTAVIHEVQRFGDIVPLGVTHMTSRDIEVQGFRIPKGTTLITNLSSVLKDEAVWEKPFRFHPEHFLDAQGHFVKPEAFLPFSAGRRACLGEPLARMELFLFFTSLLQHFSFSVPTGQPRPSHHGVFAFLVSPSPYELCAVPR

Rattus norvegicus [4] = test: Antidiabetic activity in Sprague-Dawley rat assessed as glucose concentration-dependent insulin secretion by measuring reduction in blood glucose AUC at 0.3 mg/kg, po pretreated for 30 mins followed by glucose-challenge measured up to 120 mins by ipGTT relative to control; assay type: functional; set-up: scale not given: the % may be the effect or the level left
Rattus norvegicus [5] = test: Antidiabetic activity in Sprague-Dawley rat assessed as glucose concentration-dependent insulin secretion by measuring reduction in blood glucose AUC at 1 mg/kg, po pretreated for 30 mins followed by glucose-challenge measured up to 120 mins by ipGTT relative to control; assay type: functional; set-up: scale not given: the % may be the effect or the level left

| SMILES | EC50 [1] [nM] | Activity [2] [%] | further results |
| --- | --- | --- | --- |
| CN(C)C(=O)c1ccc(OCCCCC[C@H]2CC[C@]3(CCCO3)CC2)cc1 | 95 | 84 | – |
| CN(C)C(=O)c1ccc(OCCCCCC2CCC3(CC2)OCCCO3)cc1 | 29 | 96 | – |
| CN(C)C(=O)c1ccc(OCCCCC[C@H]2CC[C@@]3(CCCO3)CC2)cc1 | 132 | 89 | – |
| CC(C)(C)OC(=O)N1CCC(CCCOc2ccc(S(C)(=O)=O)cc2)CC1 | 353 | 106 | – |
| CN(C)C(=O)c1ccc(OCCCCCC2CCC3(CC2)OCCO3)cc1 | 88 | 92 | – |
| CN(C)C(=O)c1ccc(OCCCCC[C@H]2CC[C@]3(CCCCO3)CC2)cc1 | 36 | 96 | – |
| CN(C)C(=O)c1ccc(OCCCCCC2CCC3(CCCCC3)CC2)cc1 | 27 | 91 | – |
| CC(C)(C)OC(=O)N1CCC(CCCCCCOc2ccc(S(C)(=O)=O)cc2)CC1 | 78 | 72 | – |
| CN(C)C(=O)c1ccc(OCCCCC[C@H]2CC[C@]3(CCC(C)(C)O3)CC2)cc1 | 511 | 64 | – |
| CC(C)(C)OC(=O)N1CCC(CCCCOc2ccc(S(C)(=O)=O)cc2)CC1 | 209 | 100 | – |

Stronger by EC50 [1], values ahead:

| EC50 [1] [nM] | Activity [2] [%] | SMILES | further results |
| --- | --- | --- | --- |
| 21 | 96 | CN(C)C(=O)c1ccc(OCCCCC[C@H]2CC[C@@]3(CCCCO3)CC2)cc1 | – |
| 5 | 97 | CN(C)C(=O)c1ccc(OCCCCCC2CCN(C(=O)OC(C)(C)C)CC2)cc1 | solubility [3]: 74.2 µM (≈ 31.1 µg/mL) |
| 7 | 110 | CN(C)C(=O)c1ccc(OCCCCC[C@H]2CC[C@@]3(CC2)CC(C)(C)CCO3)cc1 | – |
| 4 | 104 | CN(C)C(=O)c1ccc(OCCCCC[C@H]2CC[C@]3(CC2)COC(C)(C)C3)cc1 | IC50 (Cytochrome P450 2C8): > 10000 nM; IC50 (Cytochrome P450 2C9): > 10000 nM; IC50 (Cytochrome P450 2C19): > 10000 nM; IC50 (Cytochrome P450 1A2): > 10000 nM; IC50 (Cytochrome P450 3A4): > 10000 nM; IC50 (Cytochrome P450 2D6): > 10000 nM; solubility [3]: 442 µM (≈ 177 µg/mL); Activity (Rattus norvegicus [4]): 14%; Activity (Rattus norvegicus [5]): 33% |
| 10 | 102 | CC(C)OC(=O)N1CCC(CCCCCOc2ccc(C(=O)N(C)C)cc2)CC1 | IC50 (Cytochrome P450 2C8): < 10000 nM; IC50 (Cytochrome P450 2C9): < 10000 nM; IC50 (Cytochrome P450 2C19): < 10000 nM; solubility [3]: 222 µM (≈ 89.7 µg/mL) |
| 14 | 93 | CC(C)(C)OC(=O)N1CCC(CCCCCOc2ccc(S(C)(=O)=O)cc2)CC1 | solubility [3]: 15.9 µM (≈ 6.77 µg/mL) |
| 4 | 99 | CN(C)C(=O)c1ccc(OCCCCC[C@H]2CC[C@@]3(CC2)CC(C)(C)CO3)cc1 | – |
